Entries after “also recorded” stand apart in the source; their conditions may differ.
Test system: anti-human IgE antibody as a secondary antibody
Test: Epitope mapping (3): alanine scanning ELISA, secondary antibody used alone
Assay type: binding
Conditions: alanine-substituted peptides, FIG. 3
Excerpt: FIG. 3 is a diagram showing the result of investigation of positions important for exerting antigenicity in SEQ ID NOs: 22 and 29 by an alanine scanning technique. The number on the horizontal axis denotes a value of coloration intensity at 450 nm measured by an absorption spectrometer (Abs.). In this figure, a double wavy line denotes that a value is not shown, P1 denotes that the serum from patient 1 was used, N1 and N2 denote that the sera from healthy individuals 1 and 2 were used, and 2nd denotes that an anti-human IgE antibody as a secondary antibody was used alone.
(§1) The amino acid sequence of SEQ ID NO: 22 and the amino acid sequence of SEQ ID NO: 29 identified in the above-mentioned (B) were subjected to a technique referred to as alanine scanning (Non Patent Literature 1). Specifically, a library of peptide fragments was prepared by a technique similar to that described above in (B), in which the peptide fragments were produced by substituting one amino acid at a time with alanine in each amino acid sequence of […], starting from the amino acid at an amino terminal side. Then, a technique similar to that described above in (B) was used to measure whether each peptide fragment was bound by the IgE antibody in the serum from a patient and a healthy subject, or not. When alanine substitution of an amino acid at a certain position led to loss or reduction of binding activity to the IgE antibody from the patient and development of binding activity to the IgE antibody from the healthy subject, the amino acid was determined to be an amino acid important for expression of inherent antigenicity or an amino acid affecting expression of inherent antigenicity. […] A common sequence important for expression of inherent antigenicity was discovered by this analysis.
(§2) The result of alanine scanning performed on the amino acid sequence of SEQ ID NO: 22 and the result of alanine scanning performed on the amino acid sequence of SEQ ID NO: 29 are shown in FIG. 3, respectively.

Row | Substance | binding activity to the anti-human IgE antibody as the secondary antibody (absorbance at 450 nm)
1 | SEQ ID NO: 40: amino acid at position 3 in SEQ ID NO: 29 substituted with alanine (PQAQPPQQHQFPQQQ; modified epitope) | developed binding activity
2 | SEQ ID NO: 35: amino acid at position 1 in SEQ ID NO: 22 substituted with alanine (QQFPQAEFPQQQQFP; modified epitope) | developed a relatively low level of binding activity
3 | SEQ ID NO: 32: amino acid at position 5 in SEQ ID NO: 22 substituted with alanine (QQFPQQEFPAQQQFP; modified epitope) | did not develop binding activity
4 | SEQ ID NO: 31: amino acid at position 6 in SEQ ID NO: 22 substituted with alanine (QQFPQQEFPQAQQFP; modified epitope) | developed a relatively low level of binding activity
5 | SEQ ID NO: 30: amino acid at position 7 in SEQ ID NO: 22 substituted with alanine (QQFPQQEFPQQAQFP; modified epitope) | developed binding activity

Test system: IgE antibody from the healthy subject
Test: Epitope mapping (3): alanine scanning ELISA, healthy subject serum
Assay type: binding, human
Conditions: alanine-substituted peptides; sera from healthy individuals 1 and 2; FIG. 3
Protocol: as §1, §2

Row | Substance | binding activity to the IgE antibody from the healthy subject (absorbance at 450 nm)
6 | SEQ ID NO: 35: amino acid at position 1 in SEQ ID NO: 22 substituted with alanine (QQFPQAEFPQQQQFP; modified epitope) | developed a relatively low level of binding activity
7 | SEQ ID NO: 14: amino acid at position 5 in SEQ ID NO: 29 substituted with alanine (PQQQAPQQHQFPQQQ; epitope) | did not develop binding activity
8 | SEQ ID NO: 32: amino acid at position 5 in SEQ ID NO: 22 substituted with alanine (QQFPQQEFPAQQQFP; modified epitope) | did not develop binding activity
9 | SEQ ID NO: 31: amino acid at position 6 in SEQ ID NO: 22 substituted with alanine (QQFPQQEFPQAQQFP; modified epitope) | developed a relatively low level of binding activity
10 | SEQ ID NO: 39: amino acid at position 4 in SEQ ID NO: 29 substituted with alanine (PQQAPPQQHQFPQQQ; modified epitope) | did not develop binding activity
11 | SEQ ID NO: 33: amino acid at position 4 in SEQ ID NO: 22 substituted with alanine (QQFPQQEFAQQQQFP; modified epitope) | developed binding activity
12 | SEQ ID NO: 34: amino acid at position 2 in SEQ ID NO: 22 substituted with alanine (QQFPQQAFPQQQQFP; modified epitope) | developed binding activity

Test system: IgE antibody in the serum from a patient
Test: Epitope mapping (2): overlapping peptide library, ELISA
Assay type: binding, human
Conditions: overlapping peptide fragments, 10 amino acids in length; 10 μg/ml biotin-bound peptide; 2% serum from patient 1; FIG. 2
Protocol: Based on the sequences (SEQ ID NOs: 6 and 13) of the peptides to which the IgE antibody in the serum bound in a manner specific to a patient in the above (A), a library of overlapping peptide fragments (10 amino acids in length) was prepared. The library was prepared using the sequences where sequences of the previous sequence and the next sequence of the aforementioned peptides in the full-length amino acid sequence of ω-5 gliadin from bread wheat (SEQ ID NO: 51) were added to the aforementioned peptides, and epitope mapping was performed.
Each synthesized peptide was shifted by one amino acid. In other words, each peptide overlaps with the previous peptide and the next peptide, each by 9 amino acids.
The target peptide was synthesized on the amino-modified resin in a 96-well plate by a method similar to that described above for (A). Biotin was bound to the amino terminus of the synthesized target peptide, with the biotin and the peptide sandwiching amino caproic acid derived from Fmoc-Acp(6)-OH as a spacer.
Said library was used to measure whether each peptide fragment is bound by the IgE antibody in the serum from a patient due to an antigen-antibody reaction, or not, and identify a sequence common to the peptides bound by the IgE antibody from the patient, thereby determining a peptide having the shortest amino acid sequence that serves as an epitope. Measurement was performed by an ELISA method in accordance with the following procedures.
(1) 10 μg/ml biotin-bound peptide of the library was prepared in PBST solution and was shaken in an avidin-coated ELISA plate for one hour at room temperature.
(2) The plate was washed with PBST solution.
(3) The plate was shaken in PBST solution with 1% skimmed milk for one hour at room temperature.
(4) The plate was shaken in PBST solution with 2% serum and 1% skimmed milk for one hour at room temperature.
(5) The plate was washed with PBST solution.
(6) Anti-human IgE antibody-HRP (1:10,000, PBST solution with 1% skimmed milk) was added and the plate was shaken for one hour at room temperature.
(7) The plate was washed with PBST solution.
(8) 20 μl of TMB ELISA (manufactured by Thermo Fisher Scientific) was added and the plate was shaken for 15 minutes at room temperature.
(9) 20 μl of 2 M sulfuric acid was added to quench an enzymatic reaction.
(10) An absorbance at 450 nm was measured.
(SEQ ID NO: 15), a subsequence of ω-5 gliadin from bread wheat, was measured by the overlapping technique in the library prepared based on SEQ ID NO: 6 and the obtained result is shown in FIG. 2. […] (SEQ ID NO: 23), a subsequence of ω-5 gliadin from bread wheat, was measured by the overlapping technique in the library prepared based on SEQ ID NO: 13 and the obtained result is shown in FIG. 2.

Row | Substance | binding with the IgE antibody from the patient (absorbance at 450 nm)
13 | SEQ ID NO: 27: overlapping 10-amino-acid peptide fragment from SEQ ID NO: 23 library, contains SEQ ID NO: 29 (QFPQQQPPQQ; epitope candidate) | slightly weaker binding
14 | SEQ ID NO: 21: overlapping 10-amino-acid peptide fragment from SEQ ID NO: 15 library (QFPQQEFPQQ; epitope candidate) | no binding
15 | SEQ ID NO: 19: overlapping 10-amino-acid peptide fragment from SEQ ID NO: 15 library, contains SEQ ID NO: 22 (PQQEFPQQQQ; epitope candidate) | slightly weaker binding
16 | SEQ ID NO: 26: overlapping 10-amino-acid peptide fragment from SEQ ID NO: 23 library, contains SEQ ID NO: 29 (FPQQQPPQQH; epitope candidate) | strong binding
17 | SEQ ID NO: 17: overlapping 10-amino-acid peptide fragment from SEQ ID NO: 15 library, contains SEQ ID NO: 22 (QEFPQQQQFP; epitope candidate) | slightly weaker binding
18 | SEQ ID NO: 16: overlapping 10-amino-acid peptide fragment from SEQ ID NO: 15 library (EFPQQQQFPQ; epitope candidate) | no binding
19 | SEQ ID NO: 28: overlapping 10-amino-acid peptide fragment from SEQ ID NO: 23 library (QQFPQQQPPQ; epitope candidate) | no binding
20 | SEQ ID NO: 25: overlapping 10-amino-acid peptide fragment from SEQ ID NO: 23 library, contains SEQ ID NO: 29 (PQQQPPQQHQ; epitope candidate) | strong binding
21 | SEQ ID NO: 24: overlapping 10-amino-acid peptide fragment from SEQ ID NO: 23 library (QQQPPQQHQF; epitope candidate) | no binding
22 | SEQ ID NO: 20: overlapping 10-amino-acid peptide fragment from SEQ ID NO: 15 library, contains SEQ ID NO: 22 (FPQQEFPQQQ; epitope candidate) | strong binding
23 | SEQ ID NO: 18: overlapping 10-amino-acid peptide fragment from SEQ ID NO: 15 library, contains SEQ ID NO: 22 (QQEFPQQQQF; epitope candidate) | strong binding

Test system: IgE antibody from the patient
Test: Epitope mapping (3): alanine scanning ELISA, patient serum
Assay type: binding, human
Conditions: alanine-substituted peptides; serum from patient 1; FIG. 3
Protocol: as §1, §2

Row | Substance | binding activity to the IgE antibody from the patient (absorbance at 450 nm)
24 | SEQ ID NO: 40: amino acid at position 3 in SEQ ID NO: 29 substituted with alanine (PQAQPPQQHQFPQQQ; modified epitope) | loss of binding activity
25 | SEQ ID NO: 35: amino acid at position 1 in SEQ ID NO: 22 substituted with alanine (QQFPQAEFPQQQQFP; modified epitope) | slightly reduced binding activity
26 | SEQ ID NO: 14: amino acid at position 5 in SEQ ID NO: 29 substituted with alanine (PQQQAPQQHQFPQQQ; epitope) | retained binding activity; also recorded: substantially increased binding activity
27 | SEQ ID NO: 32: amino acid at position 5 in SEQ ID NO: 22 substituted with alanine (QQFPQQEFPAQQQFP; modified epitope) | reduced binding activity
28 | SEQ ID NO: 31: amino acid at position 6 in SEQ ID NO: 22 substituted with alanine (QQFPQQEFPQAQQFP; modified epitope) | slightly reduced binding activity
29 | SEQ ID NO: 39: amino acid at position 4 in SEQ ID NO: 29 substituted with alanine (PQQAPPQQHQFPQQQ; modified epitope) | retained binding activity
30 | SEQ ID NO: 41: amino acid at position 2 in SEQ ID NO: 29 substituted with alanine (PAQQPPQQHQFPQQQ; modified epitope) | a relatively low level of reduction of binding activity
31 | SEQ ID NO: 30: amino acid at position 7 in SEQ ID NO: 22 substituted with alanine (QQFPQQEFPQQAQFP; modified epitope) | lost or reduced
32 | SEQ ID NO: 42: amino acid at position 1 in SEQ ID NO: 29 substituted with alanine (AQQQPPQQHQFPQQQ; Artificial Sequnece; modified epitope) | loss of binding activity
33 | SEQ ID NO: 33: amino acid at position 4 in SEQ ID NO: 22 substituted with alanine (QQFPQQEFAQQQQFP; modified epitope) | lost or reduced
34 | SEQ ID NO: 34: amino acid at position 2 in SEQ ID NO: 22 substituted with alanine (QQFPQQAFPQQQQFP; modified epitope) | slightly increased binding activity

Source: patent US11186617B2, “Epitope” (HOYU CO., LTD., priority 2017, dated 2021)
